# Like-named read-outs stand apart in the source and are kept apart here.
# Tests used:
# [1] = molecular target: T1, dopamine transporter (DAT), cocaine binding site (Rattus norvegicus, UniProt P23977); experiment: Displacement of [^3 H]WIN 35,428 binding (rat striatal / caudate-putamen membranes); conditions: for binding affinity compared with cocaine and WIN 35,065-2: high affinity Ki values/components of cocaine and WIN 35,065-2; for Ki: mean ± SEM, three experiments in triplicate, unlabeled ligand, rat caudate-putamen
# T1 construct: Rat striatal membranes are prepared from frozen tissue; from tissue; host or cells: rat caudate-putamen (striatal) membranes from frozen tissue
# T1 sequence (P23977 whole entry): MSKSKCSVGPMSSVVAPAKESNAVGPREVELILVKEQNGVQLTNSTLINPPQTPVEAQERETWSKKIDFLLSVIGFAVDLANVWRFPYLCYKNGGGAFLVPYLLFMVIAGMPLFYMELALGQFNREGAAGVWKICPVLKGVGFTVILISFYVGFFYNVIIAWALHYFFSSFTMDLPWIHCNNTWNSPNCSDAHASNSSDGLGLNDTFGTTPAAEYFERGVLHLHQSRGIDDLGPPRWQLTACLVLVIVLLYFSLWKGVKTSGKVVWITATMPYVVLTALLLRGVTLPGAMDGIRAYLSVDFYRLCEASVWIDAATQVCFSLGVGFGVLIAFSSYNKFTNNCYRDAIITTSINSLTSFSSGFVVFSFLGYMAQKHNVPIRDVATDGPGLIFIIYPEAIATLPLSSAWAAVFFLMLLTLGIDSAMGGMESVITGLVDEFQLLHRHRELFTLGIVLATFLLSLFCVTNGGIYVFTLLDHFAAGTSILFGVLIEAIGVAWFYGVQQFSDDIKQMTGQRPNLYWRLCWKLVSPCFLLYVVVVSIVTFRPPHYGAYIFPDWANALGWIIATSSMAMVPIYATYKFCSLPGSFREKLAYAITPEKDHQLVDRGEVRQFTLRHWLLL
# DAT = conditions: in words; cited from earlier work
# [2] = molecular target: T1, dopamine transporter (DAT), cocaine binding site; conditions: two-site model, taken from Izenwasser et al. 1994, substantially identical conditions, cited from earlier work
compound,measurement,setting,value
COC(=O)C[C@@H]1[C@@H](Cc2ccccc2)C[C@@H]2[C@@H](C)C[C@H]1N2C (relative stereo) [Compound 19b],potency relative to corresponding 6α-isomer 17b,[1]; 19b vs 17b,about twice as potent
same,binding affinity relative to unsubstituted derivative 17a,[1]; in words,comparable to that of the unsubstituted derivative 17a
same,"potency (binding affinity) relative to Compound 3, in words",[1]; vs prior art cocaine analog 3,nearly three orders of magnitude more potent
COC(=O)C[C@H]1[C@@H](Cc2ccccc2)C[C@@H]2CC[C@H]1N2C (relative stereo) [Compound 16a],"binding affinity compared with cocaine and WIN 35,065-2",[1]; in words,"not statistically different from the binding affinities of cocaine and WIN 35,065-2"
same,Ki,[1],91 ± 10 nM
"COC(=O)[C@@H]1[C@@H](OC(=O)c2ccccc2)C[C@@H]2[C@@H](OC)C[C@H]1N2C (relative stereo) [Compound 3, 6β-methoxypseudococaine]",binding affinity to DAT (literature),DAT,relatively low
COC(=O)C[C@@H]1[C@@H](Cc2ccccc2)C[C@@H]2CC[C@H]1N2C (relative stereo) [Compound 17a],"potency relative to the binding affinities of cocaine, WIN 35,065-2 and 16a (unsubstituted 2α-isomer)",[1]; in words,significantly less potent
same,Ki,[1],108 ± 14 nM
same,"potency (binding affinity) relative to Compound 3, in words",[1]; vs prior art cocaine analog 3,nearly three orders of magnitude more potent
CC[C@@H]1C[C@@H]2[C@H](CC(=O)OC)[C@@H](Cc3ccccc3)C[C@H]1N2C (relative stereo) [Compound 17c],"potency (binding affinity) relative to Compound 3, fold",[1]; vs prior art cocaine analog 3,about 100 times
COC(=O)C[C@H]1[C@@H](Cc2ccccc2)C[C@@H]2[C@@H](C)C[C@H]1N2C (relative stereo) [Compound 18b],potency relative to corresponding 6α-methyl analog 16b,[1]; 18b vs 16b,about fourfold more potent
same,binding affinity relative to unsubstituted analog 16a,[1]; in words,only a slightly lower binding affinity than that of the unsubstituted analog 16a
same,"binding affinity compared with cocaine and WIN 35,065-2",[1]; in words,"within a factor of two of the high affinity binding components of cocaine and WIN 35,065-2"
CCC[C@H]1C[C@@H]2[C@H](CC(=O)OC)[C@@H](Cc3ccccc3)C[C@H]1N2C (relative stereo) [Compound 19d],"potency (binding affinity) relative to Compound 3, in words",[1]; vs prior art cocaine analog 3,nearly three orders of magnitude more potent
COC(=O)C[C@@H]1[C@@H](Cc2ccccc2)C[C@@H]2[C@H](C)C[C@H]1N2C (relative stereo) [Compound 17b],Ki,[1],531 ± 12 nM
"COC(=O)[C@H]1[C@H]2[C@H](OC)C[C@@H](C[C@@H]1OC(=O)c1ccccc1)N2C (relative stereo) [Compound 4, 7β-methoxypseudococaine]",binding affinity to DAT (literature),DAT,relatively low
"COC(=O)[C@H]1[C@@H](c2ccccc2)C[C@@H]2CC[C@H]1N2C [WIN 35,065-2]",Ki,"[2]; read-out: Ki, high affinity, inhibition of [^3 H]WIN 35,428 binding, high affinity",33 ± 17 nM
same,Ki,"[2]; read-out: Ki, low affinity, inhibition of [^3 H]WIN 35,428 binding, low affinity",314 ± 222 nM
